The source made the active and inactive calls.
Legend:
Cytochrome P450 2C9 = Cytochrome P450 2C9 (Homo sapiens, UniProt P11712); conditions: Potency
Cytochrome P450 2D6 = Cytochrome P450 2D6 (Homo sapiens, UniProt P10635); assay: qHTS Assay for Inhibitors and Substrates of Cytochrome P450 2D6. [Related pubchem assays: 410 ]; type: ADME; conditions: read-out: Potency
Aminopeptidase N = target: T1, Aminopeptidase N (Plasmodium falciparum FcB1/Columbia, UniProt O96935); assay: P. falciparum M1AAP inhibitors, biochemical, fluorogenic H-Leu-NHMec substrate, 1536-well (AID 1445); parameters: species or system Plasmodium falciparum 3D7, 3D7
T1 sequence (O96935 whole entry): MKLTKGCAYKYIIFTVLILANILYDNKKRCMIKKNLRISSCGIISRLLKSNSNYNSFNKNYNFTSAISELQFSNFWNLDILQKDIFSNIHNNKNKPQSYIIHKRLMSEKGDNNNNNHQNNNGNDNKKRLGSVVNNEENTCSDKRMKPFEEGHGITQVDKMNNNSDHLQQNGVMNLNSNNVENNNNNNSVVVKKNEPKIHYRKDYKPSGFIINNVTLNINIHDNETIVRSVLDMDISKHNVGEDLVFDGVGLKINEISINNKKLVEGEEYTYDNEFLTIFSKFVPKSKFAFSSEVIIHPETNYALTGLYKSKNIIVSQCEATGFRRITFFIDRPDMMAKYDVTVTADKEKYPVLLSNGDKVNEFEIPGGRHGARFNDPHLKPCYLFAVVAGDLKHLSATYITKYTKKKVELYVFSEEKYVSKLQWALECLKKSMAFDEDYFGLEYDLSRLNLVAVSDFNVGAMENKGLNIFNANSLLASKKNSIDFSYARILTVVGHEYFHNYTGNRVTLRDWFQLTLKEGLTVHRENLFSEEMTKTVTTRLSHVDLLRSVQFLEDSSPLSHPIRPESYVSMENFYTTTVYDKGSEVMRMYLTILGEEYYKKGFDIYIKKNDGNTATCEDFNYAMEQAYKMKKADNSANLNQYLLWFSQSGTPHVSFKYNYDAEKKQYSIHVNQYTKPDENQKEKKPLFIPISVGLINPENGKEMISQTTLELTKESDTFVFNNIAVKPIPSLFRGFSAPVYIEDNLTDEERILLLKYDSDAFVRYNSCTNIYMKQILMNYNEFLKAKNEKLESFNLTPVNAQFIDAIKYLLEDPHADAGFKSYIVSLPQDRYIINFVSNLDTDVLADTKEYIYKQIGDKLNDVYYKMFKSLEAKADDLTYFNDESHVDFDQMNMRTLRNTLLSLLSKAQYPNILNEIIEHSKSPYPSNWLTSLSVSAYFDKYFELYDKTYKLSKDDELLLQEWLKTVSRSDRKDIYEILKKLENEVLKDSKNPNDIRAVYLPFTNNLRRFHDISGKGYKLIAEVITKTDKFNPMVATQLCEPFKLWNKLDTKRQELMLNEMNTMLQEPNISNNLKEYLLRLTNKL

Streptococcus = assay: Group A Streptococcus viability loss, dose response, counter-screen for streptokinase expression inhibitor project, luminescence, BacTiterGlo (AID 1915); type: functional, organism-based;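 also: potency for reduction of bacterial viability or growth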
[1] = NIH-3T3 fibroblast cytotoxicity, dose response, cytotoxicity control, cell-based, fluorescence, Alamar Blue, secondary assay (AID 2327); type: functional;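 also: NIH-3T3 mouse fibroblasts cultured with fluconazole at 8 µg/mL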
[2] = enhancers of respiration in Yfh1-depleted yeast, dose response, Friedreich's ataxia, plus single-dose screen (AID 1465); type: functional;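 also: yeast depleted of Yfh1p frataxin homolog grown on glycerol needing respiration; WST-1 tetrazolium dye reduction as measure of cellular dehydrogenase metabolic activity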
[3] = target: T2, Short transient receptor potential channel 4 (Mus musculus, UniProt Q9QUQ5); assay: mouse TRPC4 channel activators, dose response, cell-based, HEK293 TRPC4/mu-opioid, Fluo-4 calcium (AID 434937); type: functional
T2 sequence (Q9QUQ5 whole entry): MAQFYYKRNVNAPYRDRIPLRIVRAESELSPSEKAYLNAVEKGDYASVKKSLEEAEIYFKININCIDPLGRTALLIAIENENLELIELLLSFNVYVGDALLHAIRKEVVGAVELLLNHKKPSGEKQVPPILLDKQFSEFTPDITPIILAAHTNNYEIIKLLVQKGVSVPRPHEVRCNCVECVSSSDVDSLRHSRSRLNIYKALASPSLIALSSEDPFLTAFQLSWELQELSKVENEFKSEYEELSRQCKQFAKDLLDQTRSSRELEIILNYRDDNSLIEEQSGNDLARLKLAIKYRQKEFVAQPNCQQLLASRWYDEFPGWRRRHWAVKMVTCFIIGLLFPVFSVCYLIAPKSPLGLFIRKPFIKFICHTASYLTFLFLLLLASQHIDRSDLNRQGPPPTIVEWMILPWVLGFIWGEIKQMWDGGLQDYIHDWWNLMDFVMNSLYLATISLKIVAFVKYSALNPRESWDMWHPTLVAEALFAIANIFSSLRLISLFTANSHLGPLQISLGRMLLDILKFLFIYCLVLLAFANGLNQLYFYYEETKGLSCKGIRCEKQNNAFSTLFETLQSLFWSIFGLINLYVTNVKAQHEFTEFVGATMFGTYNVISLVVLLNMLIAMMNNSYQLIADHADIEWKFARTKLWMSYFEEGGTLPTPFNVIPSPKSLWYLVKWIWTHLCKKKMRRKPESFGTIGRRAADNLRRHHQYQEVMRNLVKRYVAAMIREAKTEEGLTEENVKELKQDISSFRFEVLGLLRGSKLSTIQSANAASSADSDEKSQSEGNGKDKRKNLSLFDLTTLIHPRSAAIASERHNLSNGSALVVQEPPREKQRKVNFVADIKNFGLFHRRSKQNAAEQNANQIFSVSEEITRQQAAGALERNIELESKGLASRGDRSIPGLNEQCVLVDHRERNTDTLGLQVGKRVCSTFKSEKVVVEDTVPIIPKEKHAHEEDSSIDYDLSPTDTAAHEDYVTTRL

[4] = test system: Streptococcus sp. 'group A'; assay: growth inhibition of control SK(-) GAS strain, dose response, counter-screen for streptokinase expression inhibitor project, luminescence, kanamycin, BacTiterGlo, confirmation (AID 1900); type: functional, organism-based
Streptokinase A = target: T3, Streptokinase A (Streptococcus pyogenes serotype M1, UniProt P10520); assay: S. pyogenes streptokinase expression inhibitors, potency, dose response, plasminogen activation absorbance, OD405 (AID 1914); type: functional, Streptococcus pyogenes M1 GAS;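 also: secreted streptokinase activity via plasminogen activation per viability signal from cell pellet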
T3 sequence (P10520 whole entry): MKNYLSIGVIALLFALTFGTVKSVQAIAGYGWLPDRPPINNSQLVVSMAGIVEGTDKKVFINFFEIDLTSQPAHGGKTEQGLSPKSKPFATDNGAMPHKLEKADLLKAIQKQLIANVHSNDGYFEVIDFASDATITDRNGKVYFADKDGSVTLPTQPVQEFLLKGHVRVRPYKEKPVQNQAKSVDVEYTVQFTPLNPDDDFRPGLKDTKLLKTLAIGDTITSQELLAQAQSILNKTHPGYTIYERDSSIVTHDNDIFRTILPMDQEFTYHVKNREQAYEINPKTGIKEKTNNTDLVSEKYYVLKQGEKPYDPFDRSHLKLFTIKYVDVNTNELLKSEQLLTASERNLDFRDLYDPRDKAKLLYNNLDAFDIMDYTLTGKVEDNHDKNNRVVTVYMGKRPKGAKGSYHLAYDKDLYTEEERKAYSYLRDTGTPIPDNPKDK

[5] = C. albicans growth with fluconazole, confirmation, fluorescence, retest (AID 2467); type: functional, cell-based
[6] = HEp-2 cell cytotoxicity, dose response, cytotoxicity control for RSV inhibitor project, HTS (AID 2410); type: functional; conditions: human respiratory syncytial virus
[7] = target: G-protein coupled receptor 55 (Homo sapiens, UniProt Q9Y2T6); assay: GPR55 agonists via beta-arrestin recruitment, primary screen, imaging, U2OS cells, beta-arrestin-GFP redistribution (AID 1961); type: functional
Chain of G-protein coupled receptor 55 (Q9Y2T6 whole entry): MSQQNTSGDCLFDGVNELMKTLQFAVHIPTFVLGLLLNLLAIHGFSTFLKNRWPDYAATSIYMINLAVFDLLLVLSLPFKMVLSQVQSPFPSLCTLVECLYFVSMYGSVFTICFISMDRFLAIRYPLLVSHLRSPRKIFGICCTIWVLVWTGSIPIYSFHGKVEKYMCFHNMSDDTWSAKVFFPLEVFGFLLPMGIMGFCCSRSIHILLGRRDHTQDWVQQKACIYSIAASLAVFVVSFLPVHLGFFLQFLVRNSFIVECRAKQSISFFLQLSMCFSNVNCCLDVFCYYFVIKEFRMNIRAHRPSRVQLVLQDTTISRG

Large T antigen = Large T antigen (Simian virus 40, UniProt P03070); type: functional, Betapolyomavirus macacae;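 also: Confirmatory-stage PubChem screen for compounds that inhibit SV40 T antigen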
Chain of Large T antigen (P03070 whole entry): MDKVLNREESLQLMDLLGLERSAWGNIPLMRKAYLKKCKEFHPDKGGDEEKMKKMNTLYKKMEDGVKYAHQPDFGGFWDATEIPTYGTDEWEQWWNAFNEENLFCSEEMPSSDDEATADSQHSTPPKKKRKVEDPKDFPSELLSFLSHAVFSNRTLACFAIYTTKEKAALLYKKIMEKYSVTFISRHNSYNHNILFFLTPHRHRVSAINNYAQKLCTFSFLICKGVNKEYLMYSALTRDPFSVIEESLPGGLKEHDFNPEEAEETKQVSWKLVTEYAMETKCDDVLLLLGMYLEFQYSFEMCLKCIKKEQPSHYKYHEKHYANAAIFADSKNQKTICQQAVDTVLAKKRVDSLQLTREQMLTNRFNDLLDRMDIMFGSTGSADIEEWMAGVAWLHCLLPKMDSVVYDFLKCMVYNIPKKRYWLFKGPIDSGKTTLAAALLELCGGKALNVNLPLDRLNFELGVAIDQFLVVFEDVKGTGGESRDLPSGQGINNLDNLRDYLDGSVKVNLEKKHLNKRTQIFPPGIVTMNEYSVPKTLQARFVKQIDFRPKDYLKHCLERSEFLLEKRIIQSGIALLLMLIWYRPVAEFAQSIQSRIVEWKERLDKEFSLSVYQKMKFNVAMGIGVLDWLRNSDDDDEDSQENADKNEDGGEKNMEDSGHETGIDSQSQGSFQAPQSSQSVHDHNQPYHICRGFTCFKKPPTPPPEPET

Cytochrome P450 1A2 = target: T4, Cytochrome P450 1A2 (Homo sapiens, UniProt P05177);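 also: PubChem cytochrome P450 panel assay, CYP1A2 panel member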
T4 sequence (P05177 whole entry): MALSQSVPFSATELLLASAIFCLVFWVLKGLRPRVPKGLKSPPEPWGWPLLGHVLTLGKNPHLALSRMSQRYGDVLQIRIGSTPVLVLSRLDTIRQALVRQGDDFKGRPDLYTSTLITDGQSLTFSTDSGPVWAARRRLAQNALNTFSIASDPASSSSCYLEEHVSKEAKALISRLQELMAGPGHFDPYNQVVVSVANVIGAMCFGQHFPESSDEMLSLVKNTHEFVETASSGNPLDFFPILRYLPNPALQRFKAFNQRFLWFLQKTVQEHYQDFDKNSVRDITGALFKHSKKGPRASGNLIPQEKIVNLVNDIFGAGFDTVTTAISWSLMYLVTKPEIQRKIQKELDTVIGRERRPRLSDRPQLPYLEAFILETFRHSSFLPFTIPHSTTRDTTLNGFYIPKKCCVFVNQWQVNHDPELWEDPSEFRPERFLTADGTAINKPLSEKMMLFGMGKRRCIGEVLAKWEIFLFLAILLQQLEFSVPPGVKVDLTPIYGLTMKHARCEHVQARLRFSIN

Cytochrome P450 3A4 = Cytochrome P450 3A4 (Homo sapiens, UniProt P08684);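 also: CYP3A4 tested as one member of a cytochrome P450 panel screen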
Chain of Cytochrome P450 3A4 (P08684 whole entry): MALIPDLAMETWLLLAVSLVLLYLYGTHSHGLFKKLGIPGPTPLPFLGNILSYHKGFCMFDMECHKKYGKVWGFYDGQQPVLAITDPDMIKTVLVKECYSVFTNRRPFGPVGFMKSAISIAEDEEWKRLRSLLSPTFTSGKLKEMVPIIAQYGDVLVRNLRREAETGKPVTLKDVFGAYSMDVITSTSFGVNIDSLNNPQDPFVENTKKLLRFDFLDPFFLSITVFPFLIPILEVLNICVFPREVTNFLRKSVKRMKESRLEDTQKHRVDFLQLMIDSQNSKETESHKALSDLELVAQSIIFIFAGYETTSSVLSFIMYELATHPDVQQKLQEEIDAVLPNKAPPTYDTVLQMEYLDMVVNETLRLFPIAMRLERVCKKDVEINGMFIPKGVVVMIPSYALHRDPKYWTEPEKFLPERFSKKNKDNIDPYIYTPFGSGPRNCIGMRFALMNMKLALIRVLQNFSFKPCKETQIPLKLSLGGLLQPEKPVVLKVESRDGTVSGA

Hexokinase = target: T5, Hexokinase (Trypanosoma brucei, UniProt Q38C41); assay: Confirmation assay for inhibitors of Trypanosoma brucei hexokinase 1-Analogue-first series. [Related pubchem assays (depositor defined):AID1430, AID1632, AID2516, AID2560, AID2579, AID2600, AID449725, AID492951]; type: functional
T5 sequence (Q38C41 whole entry): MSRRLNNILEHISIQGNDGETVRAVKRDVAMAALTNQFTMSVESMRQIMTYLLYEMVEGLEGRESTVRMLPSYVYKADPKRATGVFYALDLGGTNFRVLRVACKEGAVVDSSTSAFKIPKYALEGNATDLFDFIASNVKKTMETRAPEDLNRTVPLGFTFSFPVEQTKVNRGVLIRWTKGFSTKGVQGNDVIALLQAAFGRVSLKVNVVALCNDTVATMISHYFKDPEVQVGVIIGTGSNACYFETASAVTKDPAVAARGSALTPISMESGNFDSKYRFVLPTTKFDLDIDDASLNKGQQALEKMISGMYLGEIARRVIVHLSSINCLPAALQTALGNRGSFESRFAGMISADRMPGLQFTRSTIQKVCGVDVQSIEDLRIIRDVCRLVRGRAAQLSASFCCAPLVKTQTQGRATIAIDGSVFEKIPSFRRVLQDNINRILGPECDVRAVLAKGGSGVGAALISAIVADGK

Chain of Cytochrome P450 2D6 (P10635 whole entry): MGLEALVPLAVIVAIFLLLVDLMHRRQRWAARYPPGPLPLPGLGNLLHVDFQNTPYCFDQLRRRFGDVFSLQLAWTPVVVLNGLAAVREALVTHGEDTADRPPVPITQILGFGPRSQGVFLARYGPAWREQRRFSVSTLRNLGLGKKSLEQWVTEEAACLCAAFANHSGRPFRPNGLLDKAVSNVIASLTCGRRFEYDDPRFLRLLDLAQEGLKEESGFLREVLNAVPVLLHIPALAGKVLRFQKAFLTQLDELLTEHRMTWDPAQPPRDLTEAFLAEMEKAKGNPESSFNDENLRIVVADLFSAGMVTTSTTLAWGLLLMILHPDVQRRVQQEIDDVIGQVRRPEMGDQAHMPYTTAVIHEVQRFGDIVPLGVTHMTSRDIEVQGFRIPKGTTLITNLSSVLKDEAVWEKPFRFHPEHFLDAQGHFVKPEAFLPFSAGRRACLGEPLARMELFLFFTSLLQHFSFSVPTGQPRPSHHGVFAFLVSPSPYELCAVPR
Chain of Cytochrome P450 2C9 (P11712 whole entry): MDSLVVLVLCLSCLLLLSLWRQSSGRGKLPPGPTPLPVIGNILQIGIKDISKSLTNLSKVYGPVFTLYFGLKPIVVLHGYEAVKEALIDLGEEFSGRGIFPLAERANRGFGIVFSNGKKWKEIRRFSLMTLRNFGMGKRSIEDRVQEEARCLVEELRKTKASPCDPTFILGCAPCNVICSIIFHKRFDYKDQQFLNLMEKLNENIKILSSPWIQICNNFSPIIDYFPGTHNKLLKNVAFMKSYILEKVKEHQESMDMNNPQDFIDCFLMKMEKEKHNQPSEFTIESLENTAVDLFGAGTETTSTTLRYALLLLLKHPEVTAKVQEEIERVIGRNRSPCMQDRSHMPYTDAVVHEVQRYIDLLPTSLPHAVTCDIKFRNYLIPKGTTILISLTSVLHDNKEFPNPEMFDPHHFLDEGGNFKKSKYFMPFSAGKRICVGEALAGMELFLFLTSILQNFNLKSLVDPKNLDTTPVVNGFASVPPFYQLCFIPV

## C=CCC1C=CC(Oc2ccc(OC)cc2)C(COC(=O)c2ccc(Br)cc2)O1 (stereo unspecified)
Cytochrome P450 2C9
  AC50: 3.98 µM (inconclusive)
Cytochrome P450 2D6
  AC50: 6.31 µM (inconclusive)

## Cc1cc(NC(=O)CSc2nc3ccsc3c(=O)n2NC(=O)c2ccccc2)no1
Aminopeptidase N
  IC50: 23.7 µM (active)

## CCCCC(=O)NNC(=S)NC(=O)C(c1ccccc1)c1ccccc1
Streptococcus
  EC50: 25.1 µM (active)
[1]
  EC50: 19.6 µM (inconclusive)
[2]
  EC50: > 100 µM (active)
[3]
  EC50: 2.66 µM (active)
[4]
  EC50: 788 nM (active)
Streptokinase A
  EC50: > 150 µM (not active)
[5]
  EC50: 2.15 µM (active)

## COc1cc2c(cc1NC(=O)CSc1ccc(C)cc1)oc1ccccc12
[6]
  CC50: 28.4 µM (active)
[7]
  EC50: 1.15 µM (active)

## CCOC(=O)c1c(N2C(=O)Nc3cc(Cl)c(Cl)cc3N2O)sc2c1CCCCC2
Large T antigen
  IC50: > 100 µM (active)
Cytochrome P450 1A2
  AC50: 39.8 µM (inconclusive)
Cytochrome P450 3A4
  AC50: 10 µM (inconclusive)
Aminopeptidase N
  IC50: 81.7 µM (active)

## COc1ccc(C2=NN(c3nc(-c4ccc(CNC(C)=O)cc4)cs3)C(c3ccco3)C2)cc1 (stereo unspecified)
[7]
  EC50: 1.04 µM (active)

## Cc1ccc2c(C)c(C(=O)N3CCN(c4ccncc4)CC3)oc2c1C
[6]
  CC50: 46.9 µM (active)
cells
  IC50: 23.9 µM (active)

## COCc1nc(-c2cc(OC)c(OC)c(OC)c2)no1
[7]
  EC50: > 32 µM (inactive)

## COC(=O)c1ccc(Cl)cc1NC(=O)c1ccc(Cl)cc1
Hexokinase
  IC50: > 25 µM (inactive)
